{"source": "patent US11767298B2", "about": "“Substituted benzimidazoles as inhibitors of transforming growth factor-β kinase” (Duke University, priority 2016, dated 2023)", "key": {"P. berghei [1]": {"test_system": "P. berghei", "test": "Liver stage parasite load, luciferase-expressing P. berghei in HepG2 cells", "format": "cell-based, Plasmodium berghei ANKA", "details": "HepG2 host cells", "protocol": "(§1) Cell-based anti-Plasmodium assays. For liver stage assays, 15,000 HepG2 or 8,000 Huh7 cells/well were added to 384-well microtiter plates using a multichannel pipette (Rainin). After 2 hours at 37° C., compounds (0-100 μM) were added to cells in duplicate or triplicate in a final concentration of 1% DMSO. DMSO was used as the negative control. Following compound incubation at 37° C. for ˜1 hr, harvested luciferase-expressing P. berghei ANKA sporozoites were added to the plates at a density of 3,000 sporozoites/well. P. berghei ANKA sporozoites were obtained from harvesting the salivary glands of infected A. stephensi mosquitoes. The plates were spun for 10 min at 1,000 rpm, and then incubated at 37° C. for ˜45 hrs. […] After ˜45 hours at 37° C., liver cell viability was assessed using CellTiter-Fluor (Promega) and then parasite load was determined using Bright-Glo (Promega). The relative fluorescence and luminescence signal intensity of each well was evaluated with an EnVision System. The luminescence signal in the presence of compounds was normalized to the negative control (DMSO). Dose-response analysis was performed with GraphPad Prism to yield the reported EC50 values.\nAnti-Plasmodium activity was evaluated in the parasite's liver stage using a previously reported high-throughput assay. In this assay, luciferase-expressing P. berghei (murine) parasites are used to infect human hepatoma cells (HepG2) and parasite load is assessed with a luminometer subsequent to evaluating HepG2 viability using a commercially available quantification kit that measures intracellular protease activity.\n(§2) Specifically, their ability to inhibit P. berghei infection in two human hepatoma cell lines (HepG2 and Huh7) as well as cytotoxicity against HepG2 and Huh7 cells was determined as described above. Liver cell cytotoxicity was evaluated with two different commercially available assays, one that tests for intracellular protease activity with a fluorescence reporter and another that relies on the luminescent detection of total ATP."}, "P. berghei [2]": {"test_system": "P. berghei", "test": "Liver stage parasite load, luciferase-expressing P. berghei in Huh7 cells", "format": "cell-based, Plasmodium berghei ANKA", "details": "Huh7 host cells, read-out: IC50 Liver state (Huh7)", "protocol": "as §1, §2"}, "panel of 140 kinases": {"test_system": "panel of 140 kinases", "test": "Kinase selectivity profiling, 33P-ATP filter-binding assay (Dundee)", "format": "biochemical", "details": "of the 140 kinases, 10 μM", "protocol": "(§3) Kinase selectivity profiling. The selectivity profile of HS-206 to inhibit mammalian kinases was tested against a panel of 140 kinases at a single concentration of 10 μM. Tests were performed using a radiolabeld (^33P-ATP) filter-binding assay at the International Centre for Kinase Profiling at the University of Dundee, UK (http://www.kinase-screen.mrc.ac.uk/).\n(§4) This panel contains members of all major kinase families, including tyrosine kinases (TK), tyrosine kinase-like (TKL), sterile serine/threonine (STE), and CDK/MAPK/GSK/CLK (CMGC). […] For these kinases, IC50 values were determined (Table 1)."}, "TAK1": {"target": "TAK1 (Homo sapiens, UniProt O43318)", "sequence (O43318 with tags, fused parts or gaps limits assumed)": "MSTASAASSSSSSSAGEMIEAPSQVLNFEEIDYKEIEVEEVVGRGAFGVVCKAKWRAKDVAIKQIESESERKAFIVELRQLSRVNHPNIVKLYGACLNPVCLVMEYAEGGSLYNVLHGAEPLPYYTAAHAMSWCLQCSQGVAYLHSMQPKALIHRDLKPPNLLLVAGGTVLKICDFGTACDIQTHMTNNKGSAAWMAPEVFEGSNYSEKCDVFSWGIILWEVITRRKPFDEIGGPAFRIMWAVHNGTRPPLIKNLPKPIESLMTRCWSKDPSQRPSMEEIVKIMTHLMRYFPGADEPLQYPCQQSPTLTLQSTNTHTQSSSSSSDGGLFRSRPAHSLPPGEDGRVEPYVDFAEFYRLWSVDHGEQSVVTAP", "test": "Kinase profiling (Dundee), TAK1", "format": "biochemical", "protocol": "as §3, §4"}, "CLK2": {"target": "CLK2 (Homo sapiens, UniProt P49760)", "sequence (P49760 whole entry)": "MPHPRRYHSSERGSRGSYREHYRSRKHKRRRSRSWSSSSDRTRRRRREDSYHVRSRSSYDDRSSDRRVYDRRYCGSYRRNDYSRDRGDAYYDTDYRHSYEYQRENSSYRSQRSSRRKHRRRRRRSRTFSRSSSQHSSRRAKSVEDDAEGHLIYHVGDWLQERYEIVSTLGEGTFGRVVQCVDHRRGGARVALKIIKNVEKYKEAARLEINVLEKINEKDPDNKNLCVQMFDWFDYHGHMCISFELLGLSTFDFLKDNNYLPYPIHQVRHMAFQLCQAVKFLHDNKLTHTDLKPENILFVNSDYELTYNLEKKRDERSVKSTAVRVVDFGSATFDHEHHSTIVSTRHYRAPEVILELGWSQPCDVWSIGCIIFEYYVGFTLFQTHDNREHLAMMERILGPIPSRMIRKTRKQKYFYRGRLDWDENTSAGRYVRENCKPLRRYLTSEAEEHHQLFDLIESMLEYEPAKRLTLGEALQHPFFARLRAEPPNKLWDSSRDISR", "test": "Kinase profiling (Dundee), CLK2", "format": "biochemical", "details": "10 μM", "protocol": "as §3, §4"}, "GCK": {"target": "GCK (Homo sapiens, UniProt Q12851)", "sequence (Q12851 whole entry)": "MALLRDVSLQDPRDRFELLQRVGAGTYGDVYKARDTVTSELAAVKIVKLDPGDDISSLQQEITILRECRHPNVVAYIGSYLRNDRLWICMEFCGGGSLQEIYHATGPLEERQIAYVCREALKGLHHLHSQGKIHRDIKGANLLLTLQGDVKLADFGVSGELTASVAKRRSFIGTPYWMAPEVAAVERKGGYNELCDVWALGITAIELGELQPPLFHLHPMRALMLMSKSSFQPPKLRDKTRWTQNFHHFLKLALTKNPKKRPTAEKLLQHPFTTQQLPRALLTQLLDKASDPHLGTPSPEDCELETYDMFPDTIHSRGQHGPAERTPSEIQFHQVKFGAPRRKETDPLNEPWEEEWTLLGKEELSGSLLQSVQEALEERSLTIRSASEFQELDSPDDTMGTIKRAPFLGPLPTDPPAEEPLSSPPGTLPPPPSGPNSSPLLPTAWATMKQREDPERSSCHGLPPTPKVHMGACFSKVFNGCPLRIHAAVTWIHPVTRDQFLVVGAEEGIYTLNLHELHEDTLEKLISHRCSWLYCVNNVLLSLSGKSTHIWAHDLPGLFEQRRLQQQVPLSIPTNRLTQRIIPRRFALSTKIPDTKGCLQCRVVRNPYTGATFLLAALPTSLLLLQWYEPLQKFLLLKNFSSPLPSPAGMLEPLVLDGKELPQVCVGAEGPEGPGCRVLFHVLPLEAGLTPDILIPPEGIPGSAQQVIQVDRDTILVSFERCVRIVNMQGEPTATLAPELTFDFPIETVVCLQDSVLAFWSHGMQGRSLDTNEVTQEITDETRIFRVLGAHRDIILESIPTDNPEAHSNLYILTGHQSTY", "test": "Kinase profiling (Dundee), GCK", "format": "biochemical", "details": "10 μM", "protocol": "as §3, §4"}, "[3]": {"test_system": "TAK1 downstream signaling (IKK, p38) in MDA-MB-231 cells", "test": "TNFα dependent signaling in MDA-MB-231 cells", "format": "cell-based", "details": "10 μM, 2 h pretreatment, TNFα stimulation", "protocol": "(§5) In order to investigate the effects of HS-206 on cellular signaling, MDA-MB-231 and Hela cells were pretreated with 10 μM HS-206 for 2 h and stimulated with TNFα (FIG. 8)."}, "[4]": {"test_system": "TAK1 downstream signaling (IKK, p38, NFκB) in Hela cells", "test": "TNFα dependent signaling in Hela cells", "format": "cell-based", "protocol": "as §5"}, "ATP-binding proteins": {"test_system": "ATP-binding proteins", "test": "ATP-beads off-target elution, HepG2 whole-cell lysates", "details": "uninfected HepG2 lysate; compared to DMSO control"}, "MDA-MB-231": {"test_system": "MDA-MB-231", "test": "Viability and proliferation assays on breast cancer cell lines", "format": "cell-based", "details": "48 h and 72 h"}}, "note": "Entries after “also recorded” stand apart in the source; their conditions may differ."}
{"smiles": "CCCn1c(NC(=O)c2cccc(C(N)=O)c2)nc2ccccc21", "note": "[HS-206 (1), (E)-N-(1-Propyl-1,3-dihydro-2H-benzo[d]imidazol-2-ylidene)isophthalamide]", "values": [{"measurement": "IC50", "setting": "P. berghei [1]; Plasmodium berghei, HepG2, parasite load", "value": "~7", "unit": "µM"}, {"measurement": "IC50", "setting": "P. berghei [1]; parasite load", "value": 6.6, "unit": "µM"}, {"measurement": "IC50", "setting": "P. berghei [2]; Plasmodium berghei, Huh-7, parasite load", "value": "~7", "unit": "µM"}, {"measurement": "IC50", "setting": "P. berghei [2]; parasite load", "value": 7.3, "unit": "µM"}, {"measurement": "number of kinases with ≥80% inhibition", "setting": "panel of 140 kinases", "value": 11}, {"measurement": "IC50", "setting": "TAK1", "value": "0.0095 ± 0.002", "unit": "µM"}, {"measurement": "inhibition at 10 µM", "setting": "TAK1; 10 μM", "value": "> 90", "unit": "%"}, {"measurement": "inhibition at 10 µM", "setting": "CLK2", "value": "> 90", "unit": "%"}, {"measurement": "inhibition at 10 µM", "setting": "GCK", "value": "> 90", "unit": "%"}, {"measurement": "TNFα dependent signaling (activation of IKK and p38)", "setting": "[3]", "value": "inhibited activation of IKK and p38; also recorded: inhibits TNFα dependent signaling"}, {"measurement": "TNFα dependent signaling (activation of IKK and p38)", "setting": "[4]; 10 μM, 2 h pretreatment, TNFα stimulation", "value": "inhibited activation of IKK and p38; also recorded: inhibits TNFα dependent signaling"}, {"measurement": "dose-dependent inhibition of signaling upon TNFα stimulation", "setting": "[4]; Hela cells", "value": "inhibits p38 and NFκB signaling in a dose-dependent manner; also recorded: dose-dependent inhibition of JNK and NFκB signaling"}, {"measurement": "elution of ATP-binding proteins from ATP-sepharose beads", "setting": "ATP-binding proteins", "value": "did not lead to any significant elution of ATP-binding proteins"}, {"measurement": "cell proliferation", "setting": "MDA-MB-231", "value": "significant reduction in cell proliferation; also recorded: inhibits cell proliferation in a dose-dependent manner"}]}
